Reference: patent publication US20060029548A1, “Methods of diagnosing, monitoring and treating pulmonary diseases” (priority 2004, published 2006)

What was measured:
[1] = tested on: pulmonary vagal afferent C fibers (P2X3/P2X2/3-receptors); assay: Perfused nerve-lung preparation: action potentials in C fibers; assay type: cell-based, guinea pig
Description: (§1) The method for the extracellular recording of the activity of vagal sensory neurons projecting to guinea pig lungs -has been described in detail previously in Canning et al. [(2004) J. Physiol. 557:543-545], which is incorporated herein by reference in its entirety. Briefly, male Hartley guinea pigs (100-200 g) were killed with CO2 inhalation and exsanguination. The blood from the pulmonary circulation was washed out by in situ perfusion with Krebs' bicarbonate solution (KBS; comprised of 118 mM NaCl, 5.4 mM KCl, 1.0 mM NaH2PO4, 1.2 mM MgSO4, 1.9 mM CaCl2, 25.0 mM NaHCO3, 11.1 mM dextrose, and gassed with 95% O2-5% CO2 at pH7.4). The KBS contained 3 uM indomethacin to reduce the indirect influence of tissue prostanoids on sensory fiber activity. Trachea and right lungs, having intact right-side extrinsic vagal innervation by the inclusion, e.g., of right jugular and nodose ganglia, were dissected from the exsanguinated guinea pigs and placed in a two-compartment tissue bath. The right nodose and jugular ganglia, along with the rostral vagus nerve, were placed into one compartment of the tissue bath whereas the lung and trachea were placed into the second compartment of the tissue bath. The two compartments were separately superfused with KBS (6 ml min^−1, at 37° C.).
(§2) The pulmonary artery and trachea were cannulated with polyethylene (PE) tubing and continuously perfused with KBS (4 ml min^−1 and 2 ml min^−1, respectively). […]
(§3) Once a mechanosensitive receptive field was identified, a brief [<1 millisecond (ms)] electrical stimulus was delivered by a small concentric electrode that was positioned over a discrete region of the mechanosensitive receptive field to determine the conduction velocity of the fiber. […] Conduction velocity was calculated by dividing the distance along the nerve pathway by the time between the shock artifact and the action potential evoked by electrical stimulation of the mechanosensitive receptive field. […]

[2] = tested on: pulmonary vagal afferent A fibers (P2X3/P2X2/3-receptors); assay: Perfused nerve-lung preparation: action potentials in A fibers; assay type: cell-based, guinea pig
Description: as §1, §2, §3

[3] = tested on: vagal action potentials elicited by ATP; conditions: dog; cited from earlier work
[4] = tested on: vagal C fiber; assay: Vagal activation experiments in dogs: action potentials in vagal C fibers; assay type: in vivo; conditions: anesthetized dog, rapid bolus; simultaneous recording with RAR-containing fiber
Description: (§4) The experiments described in Example 5 were performed essentially as described in Pelleg et al. [(1996) J. Physiol. 490(1):265-275] and U.S. Pat. No. 5,874,420, both of which are incorporated herein by reference in their entirety. In brief, they were performed on anesthetized (sodium pentobarbitone, 30 mg kg^−1 plus 3 mg kg^−1 h^−1, intravenous) dogs artificially ventilated with room air using a respirator. Arterial blood pH, PO2, PCO2, body temperature were maintained as described in U.S. Pat. No. 5,874,420. A peripheral vein was cannulated for the administration of physiological saline solution and maintenance doses of anesthetic. Catheters were introduced via the femoral vein and left atrial appendage and positioned in the right atrium and left atrium for the administration of test solutions. The chest was opened by a longitudinal sternotomy. The right cervical vagosympathetic trunk was exposed by a midcervical longitudinal section of the skin and careful dissection of neck muscles and connective tissues. The edges of the cut skin were elevated and secured to create a trough which was filled with warm (about 37° C.) mineral oil. A section of the vagosympathetic trunk was placed on a small plate of black Perspex™ and fine branches were separated from the main bundle by careful dissection using microsurgical tools and a dissecting microscope (Model F212, Jenopik Jena, GmbH, Germany).
Extracellular neural action potentials were recorded using a custom-made bipolar electrode that contained two platinum-iridium wires (1.25 cm×0.0125 cm) connected to a high-impedence first-stage differential amplifier (model AC8331, CW, Inc., Ardmore, Pa.) via a shielded cable. The output of the first-stage amplifier was fed into a second-stage differential amplifier (model BMA-831/C, CWE, Inc.). Isolated fibers were laid on the pair of platinum-iridium wires. Vagal C fibers with chemosensitive endings have a sparse irregular discharge which is not associated with cardiac or respiratory cycles. […]
ATP (3 umole kg^−1) and capsaicin (10 ug kg^−1) were administered as a rapid bolus into the right atrium (5 ml test solution+5 ml physiological saline flush). α,βmATP and β,γmATP were given as one low dose only (0.75 umol kg^−1) to avoid systemic side effects. […] To exclude involvement of baroreceptors in the recorded neural activity, the latter was monitored before and after a bolus of nitroglycerine (1 mg; intravenous). […]

[5] = tested on: pulmonary RAR-containing afferent nerve fiber; assay: Vagal activation experiments in dogs: action potentials in RAR-containing fibers; assay type: in vivo; conditions: anesthetized dog
Description: as §4
Extracellular neural action potentials were recorded using a custom-made bipolar electrode that contained two platinum-iridium wires (1.25 cm×0.0125 cm) connected to a high-impedence first-stage differential amplifier (model AC8331, CW, Inc., Ardmore, Pa.) via a shielded cable. The output of the first-stage amplifier was fed into a second-stage differential amplifier (model BMA-831/C, CWE, Inc.). Isolated fibers were laid on the pair of platinum-iridium wires. Vagal C fibers with chemosensitive endings have a sparse irregular discharge which is not associated with cardiac or respiratory cycles. Confirmation of fiber type was obtained by: first monitoring the response to capsaicin (10 microg kg^−1, intra-right atrial bolus); second, monitoring the response to mechanical stimulation of the lungs using gentle probing with forceps as well as inflation of the lungs to 2-3 times the tidal volume; and third, determining the speed of conduction using a stimulating electrode positioned distal to the initial recording site. Nerve fibers with RAR on their pulmonary endings, spontaneously fire a brief (i.e., short lasting) volley of action potentials associated with peak tracheal pressure during each respiratory cycle.
[…] Volume controls consisted of either 5 ml+5 ml or 1 ml+3 ml physiological saline. All injections were performed in the same mode by the same person. To exclude involvement of baroreceptors in the recorded neural activity, the latter was monitored before and after a bolus of nitroglycerine (1 mg; intravenous).
The procedure described in Example 1 was used to measure action potentials in dog pulmonary fibers with RAR on their terminals following administration of various agents. RAR activation generated a brief volley of action potentials associated with each respiratory cycle that was seen before as well as after administration of ATP (FIG. 7). […] Thus ATP modified the activity of the RAR-containing fiber manifested in their transient loss of the rapid adaptability characteristic.

**Q.** What does the source list for `O=C(O)c1cc(C(=O)O)c(C(=O)N(Cc2cccc(Oc3ccccc3)c2)[C@H]2CCCc3ccccc32)cc1C(=O)O` [A-317491, 5-({(3-phenoxybenzyl)[(1S)-1,2,3,4-tetrahydro-1-napththalenyl]amino}carbonyl)-1,2,4-benzenetricarboxylic acid]?
**A.** inhibition of the action of α,βmATP ([1]; C fibers, antagonist 1 uM, 30 min, α,βmATP 10 uM 1 ml bolus): no inhibitory effect; reduction of response to α,βmATP ([1]; C fibers, antagonist 10 uM, 30 min, α,βmATP 10 uM 1 ml bolus): 62±5%; inhibition of the action of α,βmATP ([2]; A fibers, antagonist 1 uM, 30 min, α,βmATP 10 uM 1 ml bolus): 59±12%; reduction of response to α,βmATP ([2]; A fibers, antagonist 10 uM, 30 min, α,βmATP 10 uM 1 ml bolus): 88±5%

**Q.** For `Cc1nc(N=Nc2ccc(S(=O)(=O)O)cc2S(=O)(=O)O)c(COP(=O)(O)O)c(C=O)c1O` [PPADS, pyridoxalphosphate-6-azophenyl-2′4′-disulphonic acid], which “effect on number of vagal action potentials elicited by ATP” value [3] is on record?
**A.** reduced the number of vagal action potentials

**Q.** With `Nc1ncnc2c1ncn2[C@@H]1O[C@H](COP(=O)(O)CP(=O)(O)OP(=O)(O)O)[C@@H](O)[C@H]1O` [α,βmATP, α,β-methylene ATP] as the compound, how does the “frequency of the generated action potentials” value ([1]; C fibers (n=4), 10 μM, 1 mL bolus, mean±SD) read?
**A.** 146±29 discharge/sec

**Q.** And the “effect on action potentials of C fibers” value [4]?
**A.** acted similarly to ATP

**Q.** What about the “potency relative to ATP” value ([5]; FIG. 9) of the same compound?
**A.** more potent than ATP

**Q.** What about the “effect on action potentials of RAR-containing fibers” value ([5]; rapid bolus, ATP 6 μmol/kg, capsaicin 10 ug kg−1, analogs 0.75 umol kg−1) of the same compound?
**A.** acted similarly to ATP

**Q.** And the “frequency of the generated action potentials” value ([2]; A fibers (n=7), 10 μM, 1 mL bolus, mean±SD)?
**A.** 1543±285 discharge/sec
